# The supplement of paper PMC10307832
# Columns and labels:
# Test in all cases: relative viability (nuclei count vs DMSO), 5 days (fraction); higher = more cells survive
# [1] = compound: CN1CCN(CC1)C2=CC(=C(C=C2)NC3=NC=C4C(=N3)N(C5=CC=CC=C5C(=O)N4C)C)OC [XMD8-85] + N=C(N)NC(=N)NCCc1ccccc1 [Phenformin] (partner 250 µM)
# How it was run: (§1)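 Relative viability divides the nuclei count in treated wells by that in vehicle wells. Lung cancer cell lines were seeded in 1536-well plates, dosed by pin tool the next day, and fixed and stained after 5 days in one step with final 0.05% Triton X-100, 1% formaldehyde and 1 ug/ml Hoechst. Dosing was a single drug or a fixed anchor-drug dose plus five library-drug doses (not always all listed) in √10 steps, and values are medians of duplicate plates imaged at 4×.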
# [2] = compound: O=C(O)C(Cc1ccccc1[N+](=O)[O-])=NNc1nc(-c2ccc(Cl)c(Cl)c2)cs1 (mixture of isomers) [4EGI-1] + CCNC(=O)c1noc(-c2cc(C(C)C)c(O)cc2O)c1-c1ccc(CN2CCOCC2)cc1 [Luminespib] (partner 0.01 µM)
# How it was run: as §1
# [3] = compound: O=C(O)C(Cc1ccccc1[N+](=O)[O-])=NNc1nc(-c2ccc(Cl)c(Cl)c2)cs1 (mixture of isomers) [4EGI-1] + Cc1nc(NC(=O)N2CCC[C@H]2C(N)=O)sc1-c1ccnc(C(C)(C)C(F)(F)F)c1 [Alpelisib] (partner 2 µM)
# How it was run: as §1
# [4] = compound: CN1CCN(CC1)C2=CC(=C(C=C2)NC3=NC=C4C(=N3)N(C5=CC=CC=C5C(=O)N4C)C)OC [XMD8-85] + CC1(C)CCC(c2ccc(Cl)cc2)=C(CN2CCN(c3ccc(C(=O)NS(=O)(=O)c4ccc(N[C@H](CCN5CCOCC5)CSc5ccccc5)c(S(=O)(=O)C(F)(F)F)c4)cc3)CC2)C1 [Navitoclax] (partner 0.5 µM)
# How it was run: as §1
Cell Line,relative viability ([1]; first compound 0.08 µM),relative viability ([1]; first compound 0.253 µM),relative viability ([1]; first compound 0.8 µM),relative viability ([1]; first compound 2.53 µM),relative viability ([1]; first compound 8 µM),relative viability ([2]; first compound 0.5 µM),relative viability ([2]; first compound 1.581 µM),relative viability ([2]; first compound 5 µM),relative viability ([2]; first compound 15.81 µM),relative viability ([2]; first compound 50 µM),relative viability ([3]; first compound 0.5 µM),relative viability ([3]; first compound 1.581 µM),relative viability ([3]; first compound 5 µM),relative viability ([3]; first compound 15.81 µM),relative viability ([3]; first compound 50 µM),relative viability ([4]; first compound 0.08 µM),relative viability ([4]; first compound 0.253 µM),relative viability ([4]; first compound 0.8 µM),relative viability ([4]; first compound 2.53 µM),relative viability ([4]; first compound 8 µM)
NCI-H596,0.571,0.749,0.636,0.709,0.8,1.02,0.955,1.03,1.07,0.508,0.576,0.524,0.508,0.574,0.461,1.04,1.13,1.07,0.68,0.377
NCI-H2009,0.496,0.504,0.496,0.42,0.306,1.09,1.08,1.05,0.954,0.994,1.16,1.14,1.25,1.07,0.585,1.13,1.12,1.19,1.08,0.717
NCI-H2228,0.235,0.293,0.34,0.334,0.261,0.147,0.148,0.258,0.135,0.17,0.664,0.672,0.82,0.61,0.177,0.893,0.929,0.619,0.81,0.353
NCI-H2085,0.805,0.734,0.752,0.626,0.516,0.461,0.452,0.468,0.396,0.355,1.19,1,1.03,0.831,0.626,1.16,1.11,1.12,1.04,0.789
H3255,0.401,0.373,0.339,0.726,,1.07,0.674,0.991,0.621,0.733,0.861,0.641,0.756,0.473,0.561,0.519,0.581,0.45,0.484,0.284
UMC-11,0.337,0.348,0.398,0.33,0.232,1.07,1.21,0.999,0.99,0.598,1.06,1.03,1.12,0.898,0.306,0.356,0.312,0.322,0.301,0.234
NCI-H727,0.503,0.547,0.523,0.524,0.456,0.506,0.381,0.273,0.449,0.429,0.676,0.54,0.625,0.478,0.366,0.466,0.365,,0.379,0.247
NCI-H460,0.377,0.59,0.545,0.578,0.1,0.038,,0.0367,0.0323,0.0228,0.511,,0.493,0.197,0.0546,1.07,1.21,1.14,1.22,0.415
NCI-H1793,0.402,0.409,0.38,0.375,0.317,0.246,0.246,0.197,0.176,0.139,0.868,0.883,0.679,0.668,0.577,0.334,0.348,0.962,1.27,0.351
LXF-289,0.524,0.542,0.525,0.553,,0.745,0.62,0.745,0.644,0.407,1.17,1.01,1.04,0.89,0.516,0.831,0.867,0.951,0.974,0.811
NCI-H1944,0.186,0.195,0.228,0.207,0.151,0.717,,0.774,0.633,0.561,0.86,,0.796,0.642,0.672,1.13,1.1,1.18,1.16,1.12
CAL-12T,0.575,0.528,0.537,0.517,0.369,0.411,0.149,0.186,0.4,0.251,1.24,,1.28,1.25,1.15,1.18,1.11,1.1,1.06,0.759
NCI-H23,0.797,0.791,0.806,0.694,0.774,0.221,,0.23,0.246,0.179,0.905,,0.915,0.794,0.611,0.878,1.22,0.686,0.657,0.544
LK-2,,0.279,0.377,0.374,0.213,0.192,,0.269,0.206,0.162,1.22,,1.12,1.21,0.897,0.74,0.915,0.883,0.772,0.699
NCI-H647,0.258,0.522,0.528,0.465,0.307,0.227,,0.149,0.137,0.141,1.16,1.17,1.41,0.647,0.108,1.35,1.19,1.27,1.14,0.556
COR-L 105,0.406,0.445,0.453,0.432,0.248,1.04,0.648,0.801,0.667,0.598,1.2,0.818,1.04,0.89,0.599,0.83,0.819,0.738,0.563,0.337
